Test results as given in US20130109682A1, “CYCLIC ETHER COMPOUNDS USEFUL AS KINASE INHIBITORS” (NOVARTIS AG, priority 2010, published 2013).

Experiments:
PIM2 = PIM2 (Homo sapiens, UniProt Q9P1W9); experiment: KinaseGlo Pim2 ATP depletion assay; format: biochemical
Outline: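 Luminescent ATP-depletion read-out of PIM2 phosphorylating BAD peptide (RSRHSSYPAGT-OH). Final conditions: 5 nM PIM2, 4 μM ATP, 10 μM peptide, 2.5% DMSO in 50 mM HEPES pH 7.5, 5 mM MgCl2, 1 mM DTT, 0.05% BSA. Enzyme–peptide preincubated 15 min with compound; reaction run to ~50% ATP depletion.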

PIM3 = PIM3 (Homo sapiens, UniProt Q86V86); experiment: KinaseGlo Pim3 ATP depletion assay; format: biochemical
Outline: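 Kinase was preincubated 15 min with BAD peptide in HEPES pH 7.5/MgCl2/DTT/BSA before ATP was added. Final concentrations were 40 μM ATP, 100 μM BAD peptide and 2.5% DMSO, with 5 nM enzyme. The reaction ran to ~50% ATP depletion and remaining ATP was read by KinaseGlo Plus luminescence.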

PIM1 = PIM1 (Homo sapiens, UniProt P11309); experiment: KinaseGlo Pim1 ATP depletion assay; format: biochemical
Chain of PIM1 (P11309 whole entry): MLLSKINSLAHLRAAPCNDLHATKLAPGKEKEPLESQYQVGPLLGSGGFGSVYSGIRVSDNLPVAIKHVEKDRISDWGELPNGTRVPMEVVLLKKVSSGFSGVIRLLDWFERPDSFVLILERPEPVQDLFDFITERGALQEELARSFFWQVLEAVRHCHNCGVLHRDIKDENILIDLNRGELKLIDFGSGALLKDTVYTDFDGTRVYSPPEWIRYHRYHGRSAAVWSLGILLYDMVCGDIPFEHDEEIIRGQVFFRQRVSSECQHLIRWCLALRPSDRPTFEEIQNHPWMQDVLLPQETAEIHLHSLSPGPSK
Outline: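 2.5 nM PIM1 preincubated 15 min with compound and 40 μM BAD peptide in 50 mM HEPES pH 7.5, 5 mM MgCl2, 1 mM DTT, 0.05% BSA, 2.5% DMSO. The reaction was started with 20 μM ATP (final) and run to about 50% ATP depletion. Remaining ATP read by KinaseGlo Plus luminescence to give IC50.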

GSK3β = GSK3β (Homo sapiens, UniProt P49841); experiment: GSK3β ATP depletion assay; format: biochemical; settings: read-out: GSK3b IC50
Chain of GSK3β (P49841 whole entry, species assumed): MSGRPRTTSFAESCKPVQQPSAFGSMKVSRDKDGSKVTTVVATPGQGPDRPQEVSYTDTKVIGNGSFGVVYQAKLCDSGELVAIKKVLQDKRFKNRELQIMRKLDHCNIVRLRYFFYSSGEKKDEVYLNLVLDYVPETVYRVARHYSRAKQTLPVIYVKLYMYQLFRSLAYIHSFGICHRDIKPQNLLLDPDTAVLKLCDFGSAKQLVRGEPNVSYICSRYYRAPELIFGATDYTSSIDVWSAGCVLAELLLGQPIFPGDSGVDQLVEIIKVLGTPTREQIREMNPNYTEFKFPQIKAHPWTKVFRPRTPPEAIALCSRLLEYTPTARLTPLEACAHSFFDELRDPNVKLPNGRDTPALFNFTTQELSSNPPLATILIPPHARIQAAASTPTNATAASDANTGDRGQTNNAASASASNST
Outline: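 Human GSK3β (5 nM) preincubated 15 min with 10 μM biotinylated phospho-CREB peptide in pH 7.5 Tris buffer (15 mM MgCl2, 1 mM DTT, 0.1% BSA, 2.5% DMSO). Reaction started with 2 μM ATP and run to about 50% ATP depletion. Remaining ATP measured by KinaseGlo luminescence.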

[1] = system: KMS11 (human myeloma cell line); experiment: Cell proliferation assay (CellTiter-Glo), KMS11; format: cell-based; settings: Homo sapiens, KMS-11; KMS11-Luc cells
Outline: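 KMS11 cells in IMDM with 10% FBS and sodium pyruvate, seeded at 2000 cells/well on assay day. Compound added at 2× to equal volume of cells, incubated 3 days at 37° C. Viability read by CellTiter-Glo luminescence; EC50 derived.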

Chain of PIM2 (Q9P1W9 whole entry): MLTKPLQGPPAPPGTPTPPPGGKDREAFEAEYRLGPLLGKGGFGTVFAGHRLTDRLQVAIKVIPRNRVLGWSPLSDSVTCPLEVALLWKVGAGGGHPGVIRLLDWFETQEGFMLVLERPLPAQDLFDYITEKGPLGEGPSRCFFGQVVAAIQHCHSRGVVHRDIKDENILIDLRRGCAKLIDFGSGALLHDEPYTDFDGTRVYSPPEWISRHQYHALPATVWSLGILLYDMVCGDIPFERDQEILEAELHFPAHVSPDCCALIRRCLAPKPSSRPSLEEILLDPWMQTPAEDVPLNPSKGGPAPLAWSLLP

| IC50 (PIM2) [nM] | IC50 (PIM3) [nM] | IC50 (PIM1) [nM] | IC50 (GSK3β) [nM] | EC50 [1] [nM] | SMILES |
| --- | --- | --- | --- | --- | --- |
| 22.3 | 15.8 | 32.8 | 1430 | > 10000 | C=C[C@H]1O[C@@H](c2ccncc2NC(=O)c2nc(-c3c(F)cccc3F)ncc2N)C[C@@H](O)[C@@H]1O [Example 161, 5-amino-2-(2,6-difluorophenyl)-N-(4-((2R,4R,5S,6R)-4,5-dihydroxy-6-vinyltetrahydro-2H-pyran-2-yl)pyridin-3-yl)pyrimidine-4-carboxamide] |
| 818 | 178 | 216 | 13500 | > 10000 | CC[C@H]1O[C@@H](c2ncncc2NC(=O)c2ccc(F)c(-c3c(F)cccc3F)n2)C[C@@H](O)[C@@H]1O [Example 162, 6-(2,6-difluorophenyl)-N-(4-((2R,4R,5S,6R)-6-ethyl-4,5-dihydroxytetrahydro-2H-pyran-2-yl)pyrimidin-5-yl)-5-fluoropicolinamide] |
| 1.9 | 1.6 | 0.8 | 2070 | 2760 | CC[C@H]1O[C@@H](c2ccncc2NC(=O)c2ccc(F)c(-c3c(F)cccc3F)n2)C[C@@H](O)[C@]1(C)O [Example 164, 6-(2,6-difluorophenyl)-N-(4-((2R,4R,5S,6R)-6-ethyl-4,5-dihydroxy-5-methyltetrahydro-2H-pyran-2-yl)pyridin-3-yl)-5-fluoropicolinamide] |
| 67.7 | 35.9 | 9 | 2680 | > 10000 | CC[C@@H]1O[C@H](c2ccncc2NC(=O)c2nc(-c3c(F)cccc3F)c(F)cc2N)C[C@H](O)[C@@]1(C)O [Example 165, 3-amino-6-(2,6-difluorophenyl)-N-(4-((2S,4S,5R,6S)-6-ethyl-4,5-dihydroxy-5-methyltetrahydro-2H-pyran-2-yl)pyridin-3-yl)-5-fluoropicolinamide] |
| 1.2 | 1.5 | 0.6 | 1680 | 1330 | CC[C@H]1O[C@@H](c2ccncc2NC(=O)c2nc(-c3c(F)cccc3F)c(F)cc2N)C[C@@H](O)[C@]1(C)O [Example 166, 3-amino-6-(2,6-difluorophenyl)-N-(4-((2R,4R,5S,6R)-6-ethyl-4,5-dihydroxy-5-methyltetrahydro-2H-pyran-2-yl)pyridin-3-yl)-5-fluoropicolinamide] |
| 92 | 86.7 | 65.5 | 3410 | > 10000 | CC[C@@H]1O[C@H](c2ccncc2NC(=O)c2nc(-c3c(F)cccc3F)ncc2N)C[C@H](O)[C@@]1(C)O [Example 167, 5-amino-2-(2,6-difluorophenyl)-N-(4-((2S,4S,5R,6S)-6-ethyl-4,5-dihydroxy-5-methyltetrahydro-2H-pyran-2-yl)pyridin-3-yl)pyrimidine-4-carboxamide] |
| 2.3 | 2.7 | 3 | 1030 | 5900 | CC[C@H]1O[C@@H](c2ccncc2NC(=O)c2nc(-c3c(F)cccc3F)ncc2N)C[C@@H](O)[C@]1(C)O [Example 168, 5-amino-2-(2,6-difluorophenyl)-N-(4-((2R,4R,5S,6R)-6-ethyl-4,5-dihydroxy-5-methyltetrahydro-2H-pyran-2-yl)pyridin-3-yl)pyrimidine-4-carboxamide] |
| 9.3 | 13.2 | 14.4 | 1660 | > 10000 | CCC[C@H]1O[C@@H](c2ccncc2NC(=O)c2nc(-c3c(F)cccc3F)ncc2N)C[C@@H](O)[C@@H]1O [Example 169, 5-amino-2-(2,6-difluorophenyl)-N-(4-((2R,4R,5S,6R)-4,5-dihydroxy-6-propyltetrahydro-2H-pyran-2-yl)pyridin-3-yl)pyrimidine-4-carboxamide] |
| 1.3 | 1.6 | 0.5 | 19.8 | 2630 | O=C(Nc1cnccc1[C@H]1C[C@@H](O)[C@@]2(O)CCCC[C@H]2O1)c1ccc(F)c(-c2c(F)cccc2F)n1 [Example 174, 6-(2,6-difluorophenyl)-N-(4-((2R,4R,4aS,8aR)-4,4a-dihydroxyoctahydro-2H-chromen-2-yl)pyridin-3-yl)-5-fluoropicolinamide] |
| 58.7 | 57.4 | 35.7 | 598 | > 10000 | Nc1cnc(-c2c(F)cccc2F)nc1C(=O)Nc1cnccc1[C@@H]1C[C@H](O)[C@]2(O)CCCC[C@@H]2O1 [Example 175, 5-amino-2-(2,6-difluorophenyl)-N-(4-((2S,4S,4aR,8aS)-4,4a-dihydroxyoctahydro-2H-chromen-2-yl)pyridin-3-yl)pyrimidine-4-carboxamide] |
| 171 | 162 | 38.6 | 1060 | 6830 | O=C(Nc1cnccc1[C@@H]1C[C@H](O)[C@]2(O)CCCC[C@@H]2O1)c1ccc(F)c(-c2c(F)cccc2F)n1 [Example 177, 6-(2,6-difluorophenyl)-N-(4-((2S,4S,4aR,8aS)-4,4a-dihydroxyoctahydro-2H-chromen-2-yl)pyridin-3-yl)-5-fluoropicolinamide] |
| 3080 | 132 | 259 | 2690 | > 10000 | CC[C@]1(O)[C@H](O)C[C@H](c2ccncc2NC(=O)c2c[nH]cc(-c3ccccc3)c2=O)O[C@@H]1C [Example 179, N-(4-((2R,4R,5S,6R)-5-ethyl-4,5-dihydroxy-6-methyltetrahydro-2H-pyran-2-yl)pyridin-3-yl)-4-oxo-5-phenyl-1,4-dihydropyridine-3-carboxamide] |
| 10.6 | 7.2 | 8.4 | 101 | > 10000 | Nc1cnc(-c2c(F)cccc2F)nc1C(=O)Nc1cnccc1[C@H]1C[C@@H](O)[C@@]2(O)CCC[C@H]2O1 [Example 180, 5-amino-2-(2,6-difluorophenyl)-N-(4-((2R,4R,4aS,7aR)-4,4a-dihydroxyoctahydrocyclopenta[b]pyran-2-yl)pyridin-3-yl)pyrimidine-4-carboxamide] |
| 9100 | 492 | 825 | 4210 | > 10000 | O=C(Nc1cnccc1[C@H]1C[C@@H](O)[C@@]2(O)CCC[C@H]2O1)c1c[nH]cc(-c2ccccc2)c1=O [Example 181, N-(4-((2R,4R,4aS,7aR)-4,4a-dihydroxyoctahydrocyclopenta[b]pyran-2-yl)pyridin-3-yl)-4-oxo-5-phenyl-1,4-dihydropyridine-3-carboxamide] |
| 2780 | 951 | 539 | 2670 | > 10000 | Nc1cnc(-c2c(F)cccc2F)nc1C(=O)Nc1cnccc1[C@@H]1C[C@H](O)[C@]2(O)CCC[C@@H]2O1 [Example 182, 5-amino-2-(2,6-difluorophenyl)-N-(4-((2S,4S,4aR,7aS)-4,4a-dihydroxyoctahydrocyclopenta[b]pyran-2-yl)pyridin-3-yl)pyrimidine-4-carboxamide] |
| > 25000 | > 25000 | > 25000 | > 25000 | > 10000 | O=C(Nc1cnccc1[C@@H]1C[C@H](O)[C@]2(O)CCC[C@@H]2O1)c1c[nH]cc(-c2ccccc2)c1=O [Example 184, N-(4-((2S,4S,4aR,7aS)-4,4a-dihydroxyoctahydrocyclopenta[b]pyran-2-yl)pyridin-3-yl)-4-oxo-5-phenyl-1,4-dihydropyridine-3-carboxamide] |
